Experimental data reported in ChEMBL document CHEMBL1126993, “Synthesis of oxazolidinone phospholipid analogue as a new inhibitor of phospholipase A2” (Bioorg Med Chem Lett, 1993).

How the values were obtained:
Phospholipase A2 [1] = biological target: T1, Phospholipase A2 (Homo sapiens, UniProt P04054); experiment: Tested for binding affinity of compound against Phospholipase A2 (PLA2); settings: Gloydius blomhoffi
Target sequence in this assay (P04054 23-148 limits assumed): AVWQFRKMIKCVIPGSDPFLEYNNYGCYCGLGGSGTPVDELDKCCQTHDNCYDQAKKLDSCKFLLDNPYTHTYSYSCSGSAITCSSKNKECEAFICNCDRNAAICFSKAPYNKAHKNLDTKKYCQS

Phospholipase A2 [2] = biological target: T1, Phospholipase A2; experiment: Tested for inhibitory activity of compound against Phospholipase A2 (PLA2); showed no significant inhibitory activity; set-up: species or system Gloydius blomhoffi
Target sequence in this assay (P04054 whole entry): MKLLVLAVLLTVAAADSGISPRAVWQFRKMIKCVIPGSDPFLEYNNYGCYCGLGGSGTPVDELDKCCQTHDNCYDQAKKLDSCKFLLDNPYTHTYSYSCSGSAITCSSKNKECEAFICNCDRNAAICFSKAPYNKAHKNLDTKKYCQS

Row | 1/Ki (Phospholipase A2 [1]) [M⁻¹] | IC50 (Phospholipase A2 [2]) | SMILES
1 | 270000 | – | CCCCCCCCCCCC(=O)N[C@H](CCCC)COP(=O)([O-])OCC[N+](C)(C)C
2 | 45000 | – | CCCCCCCCCCCC(=O)N1C(=O)OC[C@@H]1COP(=O)([O-])OCC[N+](C)(C)C
3 | – | Not Active | CCCCCCCCCCCC(=O)N1C(=O)OC[C@H]1COP(=O)([O-])OCC[N+](C)(C)C
